One experiment has as its target 5-HT4 receptors (Homo sapiens, UniProt Q13639). Nature of the experiment: GloSensor L9 assay for cAMP response. In kind it is cell-based. The conditions noted are these: agonist/inverse agonist assay; Ag. = agonist; Inv. Ag. = Inverse agonist.
Experiment [1] addresses human recombinant 5-HT4 receptors (h5-HT4) (Homo sapiens, UniProt Q13639). Nature of the experiment: NIMH-PDSP binding to human recombinant 5-HT4 receptors, [3H]GR 113808. The conditions noted are these: for h5-HT4 Ki: h5-HT4 receptors expressed in HEK293T cells, averages of triplicate measurements.
The next experiment deals with hGABAA. The experiment is described as follows: NIMH-PDSP binding screen. More on the design: species or system human. The conditions noted are these: read-out: Binding affinities (Ki) hGABAA.
The target of the next experiment is h5-HT1E (Homo sapiens, UniProt P28566). The experiment is described as follows: NIMH-PDSP binding screen.
Sequence of h5-HT1E (P28566 whole entry): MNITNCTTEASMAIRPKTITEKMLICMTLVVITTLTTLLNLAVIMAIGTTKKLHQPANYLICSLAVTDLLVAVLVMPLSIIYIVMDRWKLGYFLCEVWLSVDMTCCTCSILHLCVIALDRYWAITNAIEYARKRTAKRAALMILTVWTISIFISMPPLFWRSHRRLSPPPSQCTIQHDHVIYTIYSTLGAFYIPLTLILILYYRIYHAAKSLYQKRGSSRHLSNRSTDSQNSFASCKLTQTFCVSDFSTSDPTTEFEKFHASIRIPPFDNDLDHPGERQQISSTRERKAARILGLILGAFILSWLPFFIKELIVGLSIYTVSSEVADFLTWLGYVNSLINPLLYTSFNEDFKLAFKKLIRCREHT
For the next experiment, the target named is BZP (rat brain site). Nature of the experiment: NIMH-PDSP binding screen. Conditions: read-out: Binding affinities (Ki) BZP (rat brain site).

“Also recorded” adds a separate entry of the source.

Sequence of 5-HT4 receptors (Q13639 whole entry): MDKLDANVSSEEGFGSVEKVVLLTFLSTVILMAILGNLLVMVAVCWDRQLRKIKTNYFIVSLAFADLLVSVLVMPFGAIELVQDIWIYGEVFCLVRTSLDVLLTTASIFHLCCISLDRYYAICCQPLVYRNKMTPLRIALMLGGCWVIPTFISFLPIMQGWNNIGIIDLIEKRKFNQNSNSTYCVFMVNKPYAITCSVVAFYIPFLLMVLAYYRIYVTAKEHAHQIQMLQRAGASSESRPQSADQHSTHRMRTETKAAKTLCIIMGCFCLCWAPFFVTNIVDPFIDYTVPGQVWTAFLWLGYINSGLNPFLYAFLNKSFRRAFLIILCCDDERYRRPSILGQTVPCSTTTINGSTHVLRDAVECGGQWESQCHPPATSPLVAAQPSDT
Sequence of human recombinant 5-HT4 receptors (h5-HT4) (Q13639 whole entry): as above

For the molecule `CCCCN1CCC(COC(=O)c2cc(I)c(N)c3c2OCCO3)CC1` [Compound 1, (1-Butylpiperidin-4-yl)methyl 8-amino-7-iodo-2,3-dihydrobenzo[b][1,4]dioxine-5-carboxylate, reference compound], the Efficacy entry on 5-HT4 receptors is recorded as “inverse agonists”.
Turning to `CCCCN1CCC(COC(=O)c2ccc(N)c3c2OCCO3)CC1` [Compound 4, reference compound], the Efficacy result at 5-HT4 receptors is “antagonists (inactive)”.
On the same count and under the same terms, the entry for `CCCCN1CCC(COC(=O)c2cc(C)c(N)c3c2OCCO3)CC1` [Compound 7, (1-Butylpiperidin-4-yl)methyl 8-amino-7-methyl-2,3-dihydrobenzo[b][1,4]dioxine-5-carboxylate] is “inactive”.
For the molecule `CCCCN1CCC(COC(=O)c2cc(Cl)c(NC)c3c2OCCO3)CC1` [Compound 8, (1-Butylpiperidin-4-yl)methyl 7-chloro-8-(methylamino)-2,3-dihydrobenzo[b][1,4]dioxine-5-carboxylate], the “h5-HT4 Ki” value in experiment [1] is reported as “low nanomolar; also recorded: binding affinity comparable to that of 1”. Also, the Ki on hGABAA, on h5-HT1E and at BZP (rat brain site) was > 10 µM in each case. In addition, the Efficacy result at 5-HT4 receptors was “inverse agonists”.
For the molecule `CCCCN1CCC(COC(=O)c2cc(Br)c(NC)c3c2OCCO3)CC1` [Compound 9, (1-Butylpiperidin-4-yl)methyl 7-bromo-8-(methylamino)-2,3-dihydrobenzo[b][1,4]dioxine-5-carboxylate], in experiment [1], the “h5-HT4 Ki” value is recorded as “low nanomolar affinity”.
For `CCCCN1CCC(COC(=O)c2ccc(N)cc2OC)CC1` [Compound 12, (1-Butylpiperidin-4-yl)methyl 4-amino-2-methoxybenzoate], the Efficacy entry on 5-HT4 receptors is “potent full agonist”.
With `CCCCN1CCC(COC(=O)c2ccc(N)c(OC)c2)CC1` [Compound 13, (1-Butylpiperidin-4-yl)methyl 4-amino-3-methoxybenzoate], in experiment [1] (5-HT4 receptor selectivity), the “selectivity against the full range of tested receptors and binding sites” value was “greater than 60 fold”. Moreover, the “h5-HT4 Ki” value in experiment [1] is recorded as “low nanomolar; also recorded: affinity comparable to that of 1”. Besides, the Ki at hGABAA and at BZP (rat brain site) was > 10 µM in each case. At 5-HT4 receptors, the Efficacy entry is “antagonists (inactive)”.
Turning to `CCCCN1CCC(COC(=O)c2cc(F)c(N)c3c2OCCO3)CC1` [Compound 17, (1-Butylpiperidin-4-yl)methyl 8-amino-7-fluoro-2,3-dihydrobenzo[b][1,4]dioxine-5-carboxylate], the “h5-HT4 Ki” value in experiment [1] is listed as “low nanomolar”. The Efficacy entry at 5-HT4 receptors is recorded as “inverse agonists”.

The values are drawn from paper PMC2951497 (Journal of medicinal chemistry, 2010).
